Data as given in PubChem BioAssay (NCI).
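Where inhibition never reached the appropriate level, the endpoint shown equals the highest concentration tested. Otherwise, values were interpolated linearly from a five-concentration, 48-hour dose response in 96-well plates. GI50: concentration for 50% inhibition of growth. TGI is the concentration that stops growth completely.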

Key:
Assay in all cases: NCI tumour cell line growth inhibition, 48 h
NCI/ADR-RES ovarian = system: NCI/ADR-RES ovarian
SK-MEL-28 melanoma = system: SK-MEL-28 melanoma
UACC-62 melanoma = system: UACC-62 melanoma
ACHN renal = system: ACHN renal
HOP-62 NSCLC = system: HOP-62 NSCLC
SK-MEL-5 melanoma = system: SK-MEL-5 melanoma
MDA-MB-231 breast = system: MDA-MB-231 breast
LOX IMVI melanoma = system: LOX IMVI melanoma

Structure (SMILES)	GI50 (NCI/ADR-RES ovarian)	TGI (NCI/ADR-RES ovarian)	GI50 (SK-MEL-28 melanoma)	TGI (SK-MEL-28 melanoma)	GI50 (UACC-62 melanoma)	TGI (UACC-62 melanoma)	GI50 (ACHN renal)	TGI (ACHN renal)	GI50 (HOP-62 NSCLC)	TGI (HOP-62 NSCLC)	GI50 (SK-MEL-5 melanoma)	TGI (SK-MEL-5 melanoma)	GI50 (MDA-MB-231 breast)	TGI (MDA-MB-231 breast)	GI50 (LOX IMVI melanoma)	TGI (LOX IMVI melanoma)
Cl.Fc1c[c-]c(-c2ccccn2)c(F)c1.[Pt].c1ccc([PH+](C[PH+](c2ccccc2)c2ccccc2)c2ccccc2)cc1	1.61 µM	5.84 µM	0.231 µM	0.706 µM	0.199 µM	0.511 µM	0.218 µM	0.463 µM								
CC(=O)/C=C/c1ccc(OCc2ccc(Cl)cc2)cc1	395 µM	> 1000 µM	400 µM	> 1000 µM	218 µM	> 1000 µM	> 1000 µM	> 1000 µM	> 1000 µM	> 1000 µM	140 µM	395 µM	629 µM	> 1000 µM	343 µM	> 1000 µM
Cc1nc2ccccc2nc1N=Nc1ccccc1	16 µM	57.6 µM	26 µM	> 100 µM	14.2 µM	35.2 µM	16.9 µM	> 100 µM	28.5 µM	> 100 µM	16 µM	30.1 µM	16.2 µM	69.1 µM	23.3 µM	> 100 µM
O=C(O)c1c(Br)c(Br)c(Br)c(Br)c1C1c2ccc(O)cc2Oc2cc(O)ccc21		> 100 µM		> 100 µM		> 100 µM		> 100 µM		> 100 µM		> 100 µM		> 100 µM		> 100 µM
COC(=O)[C@H](Cc1cn(C)cn1)NC(=O)[C@H](C)NC(=O)Nc1cc(C(F)(F)F)cc(C(F)(F)F)c1	> 10 µM	> 10 µM	> 10 µM	> 10 µM	> 10 µM	> 10 µM	> 10 µM	> 10 µM	> 10 µM	> 10 µM	> 10 µM	> 10 µM	> 10 µM	> 10 µM	> 10 µM	> 10 µM
COc1c(N2CCN(CN3C(=O)C(=O)c4cc(Cl)ccc43)C(C)C2)c(F)cc2c(=O)c(C(=O)O)cn(C3CC3)c12 (centres undefined)	76.4 µM	> 100 µM	97.5 µM	> 100 µM	20.6 µM	65.3 µM	32.1 µM	> 100 µM			15.6 µM	34.8 µM	27.3 µM	> 100 µM	19 µM	> 100 µM
Cn1cc(C2=C(Nc3ccccc3)C(=O)NC2=O)c2ccccc21	> 25 µM	> 25 µM	> 25 µM	> 25 µM	> 25 µM	> 25 µM	> 25 µM	> 25 µM	> 25 µM	> 25 µM	> 25 µM	> 25 µM	> 25 µM	> 25 µM	> 25 µM	> 25 µM
Cc1cc(O)c(C2=NN(c3ccc(S(N)(=O)=O)cc3)C(/C=C/c3ccccc3)C2)cc1Cl (centres undefined)	9.26 µM	22.7 µM	10.9 µM	23.8 µM	2.89 µM	11.4 µM	5.27 µM	21.9 µM	3.94 µM	14.1 µM	4.23 µM	16.4 µM	4.56 µM	16.3 µM	3.94 µM	16.2 µM
N#CC(C#N)=C/C=C(\Sc1ccc(F)cc1Cl)c1ccc(Cl)cc1	0.791 µM	7.53 µM	1.23 µM	10.4 µM	2.18 µM	6.16 µM	0.883 µM	2.14 µM	0.904 µM	3.42 µM	2.59 µM	8.58 µM	0.478 µM	2.27 µM	0.318 µM	1.3 µM
Cc1ccc(-n2nnnc2-c2cnc(N3CCOCC3)nc2-c2cccc(C(F)(F)F)c2)cc1	0.825 µM	2.36 µM	14.4 µM	> 50 µM	1.73 µM	25.2 µM	4 µM	> 14.7 µM	1.44 µM	4.9 µM	0.275 µM	3.42 µM	3.24 µM	> 12.2 µM	2.53 µM	7.53 µM
COC(=O)C(C(=O)OC)C(Br)C(Br)C(Br)c1ccccc1 (centres undefined)	17.8 µM	42.4 µM	12.5 µM	25.3 µM	9.46 µM	21.5 µM	2.8 µM	7.16 µM	16.9 µM	36 µM			13.2 µM	26.8 µM	1.5 µM	3.34 µM
COc1cc(Cl)cc(-c2nn(-c3cccc(NC(=O)Nc4ccc(Cl)c(Cl)c4)c3)cc2-c2ccncc2)c1	2.34 µM	24.9 µM	2.96 µM	36.8 µM	2.4 µM	16.3 µM	3.23 µM	> 100 µM	3.38 µM	35.1 µM	1.62 µM	3.17 µM	1.87 µM	4.52 µM	2.91 µM	12.4 µM
CC1(C)O[C@@H]2C[C@H]3[C@@H]4C[C@H](F)C5=CC(=O)C=C[C@]5(C)[C@@]4(F)[C@@H](O)C[C@]3(C)[C@]2(C(=O)CO)O1		> 100 µM		> 100 µM		> 100 µM		> 100 µM		> 100 µM		> 100 µM		> 100 µM		> 100 µM
COC1CC(N)C(O)C(C)O1 (centres undefined)		> 100 µM		> 100 µM		> 100 µM		> 100 µM		> 100 µM		> 100 µM		> 100 µM		> 100 µM
CC(C)(C)N/N=C(\C(=O)NC1=C(Cl)C(=O)c2ccccc2C1=O)C1C=CCS1(=O)=O (centres undefined)		71.9 µM		> 100 µM		9.17 µM		55.3 µM						32.4 µM		39.7 µM
O=C1c2cccnc2C(=O)c2c1c(C(=O)OCCCN1CCCCC1)c1ccccn21	< 0.01 µM	0.225 µM	0.034 µM	3.74 µM	< 0.01 µM	0.0478 µM	< 0.01 µM	0.0171 µM	< 0.01 µM	0.0203 µM	< 0.0143 µM	0.0466 µM	0.717 µM	13.9 µM	< 0.01 µM	< 0.01 µM
Cc1ccc(C2NC(=O)c3ccccc3N2)c(C)c1 (centres undefined)		6.5 µM		> 100 µM		> 100 µM		> 100 µM		> 100 µM		> 39.5 µM		> 100 µM		> 100 µM
COc1ccc(-c2c3c(nc4n[nH]c(-c5ccc(Cl)cc5)c24)-c2ccccc2C(=O)C3=O)cc1	2.64 µM	> 100 µM	1.84 µM	3.9 µM	1.59 µM	3.85 µM	1.46 µM	3.3 µM	1.56 µM	2.96 µM	1.51 µM	2.84 µM	1.6 µM	5.3 µM		

Structure (SMILES)	GI50 (NCI/ADR-RES ovarian)	TGI (NCI/ADR-RES ovarian)	GI50 (SK-MEL-28 melanoma)	TGI (SK-MEL-28 melanoma)	GI50 (UACC-62 melanoma)	TGI (UACC-62 melanoma)	GI50 (ACHN renal)	TGI (ACHN renal)	GI50 (HOP-62 NSCLC)	TGI (HOP-62 NSCLC)	GI50 (SK-MEL-5 melanoma)	TGI (SK-MEL-5 melanoma)	GI50 (MDA-MB-231 breast)	TGI (MDA-MB-231 breast)	GI50 (LOX IMVI melanoma)	TGI (LOX IMVI melanoma)
COc1cc(C)c2sc3ccccc3c(=O)c2c1NCCN(C)C	12.4 µM	27 µM	1.83 µM	3.42 µM	1.87 µM	3.8 µM	2.97 µM	11.3 µM	7.1 µM	19.6 µM	1.67 µM	3.08 µM	3.48 µM	15.9 µM	3.66 µM	13.1 µM
CN1CCN(c2nc(-c3csc(-c4cccs4)n3)cc3ccccc23)CC1	1.93 µM	3.92 µM	1.77 µM	3.24 µM	1.69 µM	3.15 µM	1.8 µM	3.25 µM	1.81 µM	3.67 µM	1.71 µM	3.12 µM	1.53 µM	3.13 µM	1.78 µM	3.22 µM
CCN1C(=NCCO)NS(=O)(=O)c2ccccc21		> 100 µM		> 100 µM		> 100 µM		> 100 µM		> 100 µM		> 100 µM		> 100 µM		> 100 µM
CC1(C)Cc2c(Br)c(Br)c(Br)c(OCC(O)CN3CCN(c4ccccn4)CC3)c2O1 (centres undefined)	16.3 µM	42.6 µM	18 µM	32.7 µM	14.1 µM	28.1 µM	12.5 µM	91.4 µM	13.2 µM	27.7 µM	10.8 µM	23.1 µM	12.3 µM	28.2 µM	9.22 µM	21.4 µM
CN(C)c1cccc(F)c1C(=O)NC(=O)Nc1ccc(Cl)cc1		> 44.4 µM		> 100 µM		> 100 µM		> 100 µM		> 100 µM		> 100 µM		> 72.1 µM		> 100 µM
COCCOCCOCc1n(Cc2ccc3ccccc3n2)c2ccccc2[n+]1Cc1ccc2ccccc2n1	> 100 µM	> 100 µM	0.759 µM	14.5 µM	0.424 µM	10.2 µM	13.7 µM	81.7 µM	2.44 µM	14.3 µM	0.388 µM	1.48 µM	1.02 µM	9.58 µM	1.14 µM	10.4 µM
NC1(Cc2ccc(Cl)cc2)CCN(c2ncnc3[nH]ccc23)CC1	9.97 µM	26.5 µM	6.63 µM	19.8 µM	5.85 µM	20.4 µM	5.58 µM	32.1 µM	3.63 µM	17.2 µM	14.9 µM	28.2 µM	6.9 µM	26.9 µM	4.43 µM	17.7 µM
O=[N+]([O-])c1cc([N+](=O)[O-])c(Cl)cc1Cl	1.32 µM	2.94 µM	1.74 µM	3.24 µM	1.88 µM	3.82 µM	1.62 µM	3.29 µM	1.68 µM	3.27 µM	1.79 µM	3.68 µM	1.94 µM	3.7 µM	0.361 µM	1.46 µM
O=C(CC1C=Cc2ccccc2N1C(=O)c1ccccc1)c1ccccc1 (centres undefined)		> 100 µM		> 100 µM		28.5 µM		> 100 µM		> 100 µM		30.2 µM		94 µM		67.8 µM
CCOc1ccc2c(c1)c(CC(=O)O)cn2C		> 100 µM		> 100 µM		> 100 µM		> 100 µM		> 100 µM				> 100 µM		> 100 µM
COc1cc2oc3c(c(=O)c2c(O)c1/C=C/C(C)C)C(C=C(C)C)Oc1cc(O)ccc1-3 (centres undefined)		31.1 µM		31.2 µM		32.3 µM		29.4 µM				39.9 µM		33.2 µM		27.7 µM
CCCCOC1OC(COC(=O)C(C)C)C(OC(=O)C(C)C)C(O)C1OC1OC(C)C(OC(=O)CCC)C(OC(=O)C(C)C)C1O (centres undefined)	3.85 µM	11.7 µM	16.2 µM	30 µM	12.3 µM	24.8 µM	14.9 µM	28.1 µM	14.3 µM	27.4 µM	13.6 µM	26.5 µM	10.1 µM	21.7 µM	13.3 µM	26.1 µM
C/C(=N\NC(=S)N1CCCCCC1)c1cccc2cccnc12		5.42 µM		> 66.4 µM		6.53 µM		11.6 µM		> 70.7 µM				> 79 µM		27.1 µM
CN(CCCCCl)P(=O)(OCc1ccc([N+](=O)[O-])o1)OCC1OC(n2cnc([N+](=O)[O-])c2N)C(O)C1O (centres undefined)	> 100 µM	> 100 µM	> 100 µM	> 100 µM	> 100 µM	> 100 µM	> 100 µM	> 100 µM	> 100 µM	> 100 µM	37 µM	> 100 µM	> 100 µM	> 100 µM	> 100 µM	> 100 µM
CN(CCC(=O)/C(=C\c1ccccc1)c1ccc(Cl)cc1)Cc1ccccc1	3.68 µM	> 100 µM			1.91 µM	4.37 µM	2.25 µM	5.46 µM	2.87 µM	7.46 µM	3.44 µM	13.1 µM				
COc1ccc(-c2csc(NC(=O)CN3CCN(c4cc5c(cc4F)c(=O)c(C(=O)O)cn5C4CC4)CC3)n2)cc1			3.72 µM	> 100 µM	4.18 µM	> 100 µM	3.25 µM	> 100 µM	3.59 µM	26.1 µM						
Cc1cc(Cl)ccc1C(=O)c1ccc2ccccc2c1C(=O)O		> 100 µM		> 100 µM		> 100 µM		> 100 µM				> 100 µM		> 100 µM		
